From article PMC5983563, “Defining ICR-Mo, an intrinsic colistin resistance determinant from Moraxella osloensis” (PLoS Genetics, 2018)

Assays:
EptA = molecular target: T1, EptA (Neisseria gonorrhoeae, UniProt B4RMY8); assay: TLC of fluorescent lipid; assay type: biochemical; conditions: pH 7.5, 25°C, ~24 h, 0.2 mM substrate, 40 μM enzyme, 0.03% DDM
T1 construct: gene NGK_1498; full-length membrane protein, purified in DDM

ICR-Mo (AXE82_07515) = molecular target: T2, ICR-Mo (AXE82_07515) (Faucicola osloensis, UniProt A0A378QCY4); assay: TLC of fluorescent lipid, LC/MS; assay type: biochemical; conditions: pH 7.5, 25°C, ~24 h, 0.2 mM substrate, 40 μM enzyme, 0.03% DDM
T2 construct: gene eptA; full-length synthetic gene in pET21a, membrane protein, Ni-NTA purified in DDM, ~60 kDa
T2 sequence (A0A378QCY4 entry or part of it): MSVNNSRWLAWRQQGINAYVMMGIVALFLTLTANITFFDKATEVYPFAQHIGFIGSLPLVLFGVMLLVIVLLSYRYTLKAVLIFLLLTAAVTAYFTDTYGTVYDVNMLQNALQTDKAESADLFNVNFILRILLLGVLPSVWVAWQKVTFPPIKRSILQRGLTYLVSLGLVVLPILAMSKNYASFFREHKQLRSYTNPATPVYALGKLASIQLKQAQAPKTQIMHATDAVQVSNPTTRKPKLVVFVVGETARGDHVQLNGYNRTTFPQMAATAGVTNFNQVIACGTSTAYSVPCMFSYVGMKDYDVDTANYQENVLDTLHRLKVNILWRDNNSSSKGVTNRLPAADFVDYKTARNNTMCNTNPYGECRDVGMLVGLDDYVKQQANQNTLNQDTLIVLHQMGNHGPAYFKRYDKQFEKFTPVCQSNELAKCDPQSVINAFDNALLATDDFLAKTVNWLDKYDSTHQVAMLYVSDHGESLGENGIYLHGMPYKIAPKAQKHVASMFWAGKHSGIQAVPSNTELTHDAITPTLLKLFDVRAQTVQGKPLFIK

T1 sequence (B4RMY8 entry or part of it): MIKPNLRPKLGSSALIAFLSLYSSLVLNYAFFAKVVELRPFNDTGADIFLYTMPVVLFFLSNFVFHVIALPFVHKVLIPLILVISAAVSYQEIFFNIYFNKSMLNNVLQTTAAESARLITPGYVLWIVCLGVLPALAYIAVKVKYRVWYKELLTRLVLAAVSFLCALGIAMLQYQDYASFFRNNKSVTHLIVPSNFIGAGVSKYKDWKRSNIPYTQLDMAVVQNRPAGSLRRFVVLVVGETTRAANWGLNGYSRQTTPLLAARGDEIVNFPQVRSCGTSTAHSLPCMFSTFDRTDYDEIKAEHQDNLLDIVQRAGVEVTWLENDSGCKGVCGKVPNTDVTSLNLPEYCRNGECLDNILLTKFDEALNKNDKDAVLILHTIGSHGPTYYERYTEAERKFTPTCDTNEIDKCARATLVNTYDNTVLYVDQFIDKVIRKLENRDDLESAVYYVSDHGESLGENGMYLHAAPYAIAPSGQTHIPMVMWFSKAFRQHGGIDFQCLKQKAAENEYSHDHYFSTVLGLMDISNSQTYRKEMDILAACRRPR

## CCCCCCCCCCCCCCCC(=O)OC[C@H](COP(=O)(O)OCCN)OC(=O)CCCCCCCCCCCNc1ccc([N+](=O)[O-])c2nonc12 [NBD-glycerol-3-PEA, 1-acyl-2-{12-[(7-nitro-2-1,3-benzoxadiazol-4-yl)amino]dodecanoyl}-sn-glycero-3-phosphoethanolamine]
EptA
  TLC of fluorescent lipid: Minus denotes no addition of the enzyme of EptA/MCR-1/MCR-2/ICR-Mo
ICR-Mo (AXE82_07515)
  TLC of fluorescent lipid, LC/MS: ICR-Mo displays an enzymatic activity of removing the PEA moiety from the lipid substrate
